Blank lines part the entries; values can stand above or below the compound they belong to.
Experiments:
[1] = target: T1, Tyrosine-protein phosphatase non-receptor type 11 (Homo sapiens, UniProt Q06124); test: Inhibition of full length wild type recombinant human IRS-1 peptide activated SHP2 (1 to 525 residues) using DIPMUP as substrate preincubated for 30 mins followed by substrate addition and measured after 30 mins by fluorescence based analysis
T1 sequence (Q06124 whole entry): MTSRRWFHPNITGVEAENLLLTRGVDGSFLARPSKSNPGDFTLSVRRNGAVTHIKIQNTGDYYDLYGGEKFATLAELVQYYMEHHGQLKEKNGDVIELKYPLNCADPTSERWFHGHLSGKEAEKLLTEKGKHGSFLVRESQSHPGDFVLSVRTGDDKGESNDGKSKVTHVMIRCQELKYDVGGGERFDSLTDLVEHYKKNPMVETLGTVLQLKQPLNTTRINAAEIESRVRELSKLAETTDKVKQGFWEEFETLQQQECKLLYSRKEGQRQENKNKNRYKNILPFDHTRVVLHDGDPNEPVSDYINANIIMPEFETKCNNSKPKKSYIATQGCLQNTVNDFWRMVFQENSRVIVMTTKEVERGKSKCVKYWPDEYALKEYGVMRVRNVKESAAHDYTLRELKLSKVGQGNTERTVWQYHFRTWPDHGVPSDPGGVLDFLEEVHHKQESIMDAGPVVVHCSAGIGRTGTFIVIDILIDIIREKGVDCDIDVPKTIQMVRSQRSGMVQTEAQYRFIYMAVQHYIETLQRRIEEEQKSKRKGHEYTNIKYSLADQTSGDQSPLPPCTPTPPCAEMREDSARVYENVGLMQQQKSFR

[2] = target: T1, Tyrosine-protein phosphatase non-receptor type 11; test: Inhibition of full length wild type recombinant human SHP2 (1 to 525 residues) using DIPMUP as substrate preincubated for 30 mins followed by substrate addition and measured after 30 mins by fluorescence based analysis
[3] = target: T1, Tyrosine-protein phosphatase non-receptor type 11; test: Inhibition of recombinant human SHP2 PTPase activity (219 to 525 residues) using DIPMUP as substrate preincubated for 30 mins followed by substrate addition and measured after 30 mins by fluorescence based analysis
[4] = target: Tyrosine-protein phosphatase non-receptor type 6 (Homo sapiens, UniProt P29350); test: Inhibition of full length recombinant human SHP1 (1 to 570 residues) using DIPMUP as substrate preincubated for 30 mins followed by substrate addition and measured after 30 mins by fluorescence based analysis
Chain of Tyrosine-protein phosphatase non-receptor type 6 (P29350 whole entry, the tested form may be a part): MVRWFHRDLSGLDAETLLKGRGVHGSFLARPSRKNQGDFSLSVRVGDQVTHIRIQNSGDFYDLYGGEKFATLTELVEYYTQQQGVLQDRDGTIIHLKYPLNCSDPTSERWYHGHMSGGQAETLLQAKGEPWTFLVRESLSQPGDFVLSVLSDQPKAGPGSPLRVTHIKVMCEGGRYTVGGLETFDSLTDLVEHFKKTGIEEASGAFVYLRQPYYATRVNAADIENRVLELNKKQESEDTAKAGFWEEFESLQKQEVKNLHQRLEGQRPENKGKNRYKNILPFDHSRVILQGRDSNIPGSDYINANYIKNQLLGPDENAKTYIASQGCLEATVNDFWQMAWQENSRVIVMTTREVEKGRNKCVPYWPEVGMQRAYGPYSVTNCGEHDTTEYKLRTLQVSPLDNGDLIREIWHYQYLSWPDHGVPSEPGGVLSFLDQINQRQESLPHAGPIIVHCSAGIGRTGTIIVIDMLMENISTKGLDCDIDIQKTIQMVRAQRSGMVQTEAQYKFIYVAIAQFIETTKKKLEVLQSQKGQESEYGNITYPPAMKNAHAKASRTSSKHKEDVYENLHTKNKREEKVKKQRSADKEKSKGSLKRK

[5] = system: NCI-H358; test: Antiproliferative activity against human NCI-H358 cells assessed as inhibition of cell growth measured after 72 hrs by CCK8 method; format: functional, cell-based; settings: NCI-H358, 72 h
[6] = system: MV4-11; test: Antiproliferative activity against human MV4-11 cells assessed as inhibition of cell growth measured after 72 hrs by CCK8 method; format: functional, cell-based; settings: MV4-11, 72 h
[7] = system: A549; test: Antiproliferative activity against human A549 cells assessed as inhibition of cell growth measured after 72 hrs by CCK8 method; format: functional, cell-based; settings: A549, 72 h
[8] = system: MDA-MB-468; test: Antiproliferative activity against human MDA-MB-468 cells assessed as inhibition of cell growth measured after 72 hrs by CCK8 method; format: functional, cell-based; settings: MDA-MB-468, 72 h
[9] = system: BEAS-2B; test: Antiproliferative against human BEAS-2B cells assessed as inhibition of cell growth measured after 72 hrs by CCK8 method; format: toxicity, cell-based
[10] = Inhibition of full length recombinant human SHP2 E76A mutant (1 to 525 residues) using DIPMUP as substrate preincubated for 30 mins followed by substrate addition and measured after 30 mins by fluorescence based analysis
[11] = system: MV4-11; test: Induction of apoptosis in human MV4-11 cells assessed as viable cells at 1.25 uM measured after 4 hrs by Annexin V-FITC/7-AAD staining based flow cytometric analysis (reference value: 89.1%); format: functional
[12] = system: MV4-11; test: Induction of apoptosis in human MV4-11 cells assessed as viable cells at 2.5 uM measured after 4 hrs by Annexin V-FITC/7-AAD staining based flow cytometric analysis (reference value: 89.1%); format: functional
[13] = system: MV4-11; test: Induction of apoptosis in human MV4-11 cells assessed as viable cells at 5 uM measured after 4 hrs by Annexin V-FITC/7-AAD staining based flow cytometric analysis (reference value: 89.1%); format: functional
[14] = system: MV4-11; test: Induction of apoptosis in human MV4-11 cells assessed as early apoptotic cells at 1.25 uM measured after 4 hrs by Annexin V-FITC/7-AAD staining based flow cytometric analysis (reference value: 5.97%); format: functional
[15] = system: MV4-11; test: Induction of apoptosis in human MV4-11 cells assessed as early apoptotic cells at 2.5 uM measured after 4 hrs by Annexin V-FITC/7-AAD staining based flow cytometric analysis (reference value: 5.97%); format: functional
[16] = system: MV4-11; test: Induction of apoptosis in human MV4-11 cells assessed as early apoptotic cells at 5 uM measured after 4 hrs by Annexin V-FITC/7-AAD staining based flow cytometric analysis (reference value: 5.97%); format: functional
[17] = system: MV4-11; test: Induction of apoptosis in human MV4-11 cells assessed as late apoptotic cells at 1.25 uM measured after 4 hrs by Annexin V-FITC/7-AAD staining based flow cytometric analysis (reference value: 4.03%); format: functional
[18] = system: MV4-11; test: Induction of apoptosis in human MV4-11 cells assessed as late apoptotic cells at 2.5 uM measured after 4 hrs by Annexin V-FITC/7-AAD staining based flow cytometric analysis (reference value: 4.03%); format: functional
[19] = system: MV4-11; test: Induction of apoptosis in human MV4-11 cells assessed as late apoptotic cells at 5 uM measured after 4 hrs by Annexin V-FITC/7-AAD staining based flow cytometric analysis (reference value: 4.03%); format: functional
[20] = system: MV4-11; test: Induction of apoptosis in human MV4-11 cells assessed as necrotic cells at 1.25 uM measured after 4 hrs by Annexin V-FITC/7-AAD staining based flow cytometric analysis (reference value: 0.86%); format: functional
[21] = system: MV4-11; test: Induction of apoptosis in human MV4-11 cells assessed as necrotic cells at 2.5 uM measured after 4 hrs by Annexin V-FITC/7-AAD staining based flow cytometric analysis (reference value: 0.86%); format: functional
[22] = system: MV4-11; test: Induction of apoptosis in human MV4-11 cells assessed as necrotic cells at 5 uM measured after 4 hrs by Annexin V-FITC/7-AAD staining based flow cytometric analysis (reference value: 0.86%); format: functional
[23] = system: MV4-11; test: Induction of apoptosis in human MV4-11 cells assessed as viable cells at 5 uM measured after 1 hrs by Annexin V-FITC/7-AAD staining based flow cytometric analysis (reference value: 90.1%); format: functional
[24] = system: MV4-11; test: Induction of apoptosis in human MV4-11 cells assessed as viable cells at 5 uM measured after 2 hrs by Annexin V-FITC/7-AAD staining based flow cytometric analysis (reference value: 90.1%); format: functional
[25] = system: MV4-11; test: Induction of apoptosis in human MV4-11 cells assessed as viable cells at 5 uM measured after 4 hrs by Annexin V-FITC/7-AAD staining based flow cytometric analysis (reference value: 90.1%); format: functional
[26] = system: MV4-11; test: Induction of apoptosis in human MV4-11 cells assessed as early apoptotic cells at 5 uM measured after 1 hrs by Annexin V-FITC/7-AAD staining based flow cytometric analysis (reference value: 4.28%); format: functional
[27] = system: MV4-11; test: Induction of apoptosis in human MV4-11 cells assessed as early apoptotic cells at 5 uM measured after 2 hrs by Annexin V-FITC/7-AAD staining based flow cytometric analysis (reference value: 4.28%); format: functional
[28] = system: MV4-11; test: Induction of apoptosis in human MV4-11 cells assessed as early apoptotic cells at 5 uM measured after 4 hrs by Annexin V-FITC/7-AAD staining based flow cytometric analysis (reference value: 4.28%); format: functional
[29] = system: MV4-11; test: Induction of apoptosis in human MV4-11 cells assessed as late apoptotic cells at 5 uM measured after 1 hrs by Annexin V-FITC/7-AAD staining based flow cytometric analysis (reference value: 4.21%); format: functional
[30] = system: MV4-11; test: Induction of apoptosis in human MV4-11 cells assessed as late apoptotic cells at 5 uM measured after 2 hrs by Annexin V-FITC/7-AAD staining based flow cytometric analysis (reference value: 4.21%); format: functional
[31] = system: MV4-11; test: Induction of apoptosis in human MV4-11 cells assessed as late apoptotic cells at 5 uM measured after 4 hrs by Annexin V-FITC/7-AAD staining based flow cytometric analysis (Rvb =4.21%); format: functional
[32] = system: MV4-11; test: Induction of apoptosis in human MV4-11 cells assessed as necrotic cells at 5 uM measured after 1 hrs by Annexin V-FITC/7-AAD staining based flow cytometric analysis (reference value: 0.92%); format: functional
[33] = system: MV4-11; test: Induction of apoptosis in human MV4-11 cells assessed as necrotic cells at 5 uM measured after 2 hrs by Annexin V-FITC/7-AAD staining based flow cytometric analysis (reference value: 0.92%); format: functional
[34] = system: MV4-11; test: Induction of apoptosis in human MV4-11 cells assessed as necrotic cells at 5 uM measured after 4 hrs by Annexin V-FITC/7-AAD staining based flow cytometric analysis (reference value: 0.92%); format: functional

Structure (SMILES): CC1(N)CCN(c2nnc(Sc3ccc4ccccc4c3)s2)CC1
IC50 [1]: 0.72 µM
IC50 [2]: 1.86 µM
IC50 [3]: > 50 µM
IC50 [4]: > 50 µM
IC50 [5]: 13.9 µM
IC50 [6]: 3.02 µM
IC50 [7]: 13.8 µM
IC50 [8]: 3.64 µM
Activity [9]: Toxic

Structure (SMILES): CC1(N)CCN(c2nnc(-c3cccc(Cl)c3Cl)s2)CC1
IC50 [1]: 5.89 µM

Structure (SMILES): CC1(N)CCN(c2nnc(Sc3ccc(Cl)cc3Cl)s2)CC1
IC50 [1]: 5.43 µM

Structure (SMILES): CC1(N)CCN(c2nnc(Sc3ccc(Cl)c(Cl)c3)s2)CC1
IC50 [1]: 4.42 µM

Structure (SMILES): CC1(N)CCN(c2cnc(-c3cccc(Cl)c3Cl)c(N)n2)CC1
IC50 [10]: 1.43 µM
IC50 [4]: > 50 µM
IC50 [5]: > 50 µM
IC50 [6]: 2.78 µM
IC50 [7]: > 50 µM
IC50 [8]: 31.8 µM
Activity [11]: 88.1%
Activity [12]: 88.2%
Activity [13]: 89.3%
Activity [14]: 4.94%
Activity [15]: 5.95%
Activity [16]: 5%
Activity [17]: 4.24%
Activity [18]: 5.06%
Activity [19]: 4.89%
Activity [20]: 0.66%
Activity [21]: 0.79%
Activity [22]: 0.85%
Activity [23]: 90.4%
Activity [24]: 90%
Activity [25]: 87.7%
Activity [26]: 4.27%
Activity [27]: 4.73%
Activity [28]: 6.98%
Activity [29]: 4.32%
Activity [30]: 4.35%
Activity [31]: 4.58%
Activity [32]: 1.05%
Activity [33]: 0.95%
Activity [34]: 0.77%

Structure (SMILES): CC1(N)CCN(c2nnc(-c3cccc4ccccc34)s2)CC1
IC50 [1]: 4.35 µM
IC50 [3]: > 50 µM
IC50 [4]: > 50 µM
IC50 [5]: 32.9 µM
IC50 [6]: 3.32 µM
IC50 [7]: 19 µM
IC50 [8]: 5.42 µM

Structure (SMILES): CC1(N)CCN(c2nnc(Sc3cccc(Cl)c3Cl)s2)CC1
IC50 [1]: 0.97 µM
IC50 [2]: 3.69 µM
IC50 [3]: > 50 µM
IC50 [4]: > 50 µM
IC50 [5]: 8.64 µM
IC50 [6]: 2.74 µM
IC50 [7]: 7.21 µM
IC50 [8]: 2.87 µM
Activity [9]: Toxic

The next lines start with the values.

IC50 [1]: 6.99 µM
Structure (SMILES): CC1(N)CCN(c2nnc(Sc3ccccc3F)s2)CC1

IC50 [1]: 3.82 µM
Structure (SMILES): NCC1CCN(c2nnc(Sc3cccc(Cl)c3Cl)s2)CC1

IC50 [1]: 3.29 µM
Structure (SMILES): CC1(N)CCN(c2nnc(Sc3ccccc3Cl)s2)CC1

IC50 [1]: 1.12 µM
Structure (SMILES): CC1(CN)CCN(c2nnc(Sc3cccc(Cl)c3Cl)s2)CC1

IC50 [1]: 4.35 µM
Structure (SMILES): CC1(N)CCN(c2nnc(-c3ccc4ccccc4c3)s2)CC1

IC50 [1]: 5.53 µM
Structure (SMILES): NC1CCN(c2nnc(Sc3cccc(Cl)c3Cl)s2)CC1

IC50 [1]: 4.51 µM
Structure (SMILES): CC1(N)CCN(c2nnc(Sc3cccc4cccnc34)s2)CC1

IC50 [1]: 4.95 µM
Structure (SMILES): COc1ccc2cc(-c3nnc(N4CCC(C)(N)CC4)s3)ccc2c1
